# pEC50: −log10 of the molar value.
# Target: human F508del-CFTR (Homo sapiens, UniProt P13569, DEL508-508)
# Assay: F508del-CFTR cell surface expression (corrector activity), DiscoveRx ß-galactosidase complementation chemiluminescence assay in recombinant U2OS cell line;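 note: U2OS cells co-expressing ProLink-tagged F508del-CFTR and a membrane-anchored enzyme acceptor, where more surface CFTR restores β-galactosidase activity measured by chemiluminescence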
# Details: U2OS cell line, 16h compound incubation; for pEC50: EC50, F508del-CFTR cell surface expression, geomean values; for Emax: U2OS, in relation to the Emax of the corrector lumacaftor (=100%), arithmetic mean values
# Sequence of human F508del-CFTR (P13569 with tags, fused parts or gaps DEL508-508): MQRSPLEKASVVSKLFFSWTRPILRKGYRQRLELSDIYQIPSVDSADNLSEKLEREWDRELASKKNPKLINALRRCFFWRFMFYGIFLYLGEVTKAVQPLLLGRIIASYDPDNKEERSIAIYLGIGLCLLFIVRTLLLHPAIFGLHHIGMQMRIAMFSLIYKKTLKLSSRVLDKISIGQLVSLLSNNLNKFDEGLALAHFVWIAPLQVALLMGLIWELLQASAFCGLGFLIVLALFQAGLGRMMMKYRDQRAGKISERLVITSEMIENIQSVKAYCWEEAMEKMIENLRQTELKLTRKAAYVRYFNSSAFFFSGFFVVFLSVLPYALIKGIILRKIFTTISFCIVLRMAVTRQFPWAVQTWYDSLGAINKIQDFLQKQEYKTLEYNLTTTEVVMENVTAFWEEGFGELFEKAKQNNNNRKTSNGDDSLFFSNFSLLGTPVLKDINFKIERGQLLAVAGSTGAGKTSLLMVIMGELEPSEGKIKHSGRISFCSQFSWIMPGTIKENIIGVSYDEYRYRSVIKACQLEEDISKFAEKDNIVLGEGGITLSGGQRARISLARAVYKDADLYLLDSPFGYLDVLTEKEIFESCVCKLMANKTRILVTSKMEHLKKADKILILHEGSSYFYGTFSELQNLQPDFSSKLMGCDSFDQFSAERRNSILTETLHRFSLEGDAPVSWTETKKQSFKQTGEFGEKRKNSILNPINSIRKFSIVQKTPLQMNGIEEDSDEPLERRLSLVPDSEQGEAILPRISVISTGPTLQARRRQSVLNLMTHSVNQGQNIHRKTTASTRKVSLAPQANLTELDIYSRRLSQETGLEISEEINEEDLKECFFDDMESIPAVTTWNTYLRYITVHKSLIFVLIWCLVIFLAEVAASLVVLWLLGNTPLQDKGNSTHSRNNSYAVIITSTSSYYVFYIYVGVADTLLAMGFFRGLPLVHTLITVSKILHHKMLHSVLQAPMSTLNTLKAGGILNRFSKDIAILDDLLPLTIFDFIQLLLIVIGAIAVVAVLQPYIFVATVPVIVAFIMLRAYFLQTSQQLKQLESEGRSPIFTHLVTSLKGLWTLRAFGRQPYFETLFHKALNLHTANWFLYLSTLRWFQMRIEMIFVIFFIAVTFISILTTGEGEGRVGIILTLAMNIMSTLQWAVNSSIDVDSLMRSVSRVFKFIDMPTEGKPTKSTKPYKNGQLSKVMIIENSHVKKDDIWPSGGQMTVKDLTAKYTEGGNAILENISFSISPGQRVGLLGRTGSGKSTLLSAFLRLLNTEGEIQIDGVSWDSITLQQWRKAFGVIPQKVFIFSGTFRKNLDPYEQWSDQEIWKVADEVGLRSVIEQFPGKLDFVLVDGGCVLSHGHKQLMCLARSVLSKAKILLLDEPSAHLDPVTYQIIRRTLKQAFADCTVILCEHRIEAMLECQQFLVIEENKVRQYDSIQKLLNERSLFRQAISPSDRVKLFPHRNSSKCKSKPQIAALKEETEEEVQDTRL
pEC50,Emax,SMILES
6.33,111%,"CC(C)C[C@H]1C(=O)N2CCCC[C@@H]2C(=O)N[C@H](Cc2ccccc2)COc2ccc3ncn(C)c3c2C(=O)N[C@H](C(=O)NCCc2ccc(-n3nccn3)cc2)CC(=O)N1C [Example 31, (8S,12S,18aR,21R)-N-(4-(2H-1,2,3-triazol-2-yl)phenethyl)-21-benzyl-12-isobutyl-5,11-dimethyl-6,10,13,19-tetraoxo-6,7,8,9,10,11,12,13,16,17,18,18a,19,20,21,22-hexadecahydro-5H,15H-imidazo[4′,5′:5,6]benzo[1,2-p]pyrido[2,1-f][1]oxa[4,7,10,14]tetraazacycloheptadecine-8-carboxamide]"
6.50,146%,"COc1cccc2c1OC[C@@H](NC(=O)[C@@H]1CC(=O)N(C)[C@@H](CC(C)C)C(=O)N3CCOC[C@@H]3C(=O)N[C@H](Cc3ccccc3)COc3ccc4ccccc4c3C(=O)N1)C2 [Example 32, (4aR,7R,18S,22S)-7-benzyl-22-isobutyl-N-(-8-methoxychroman-3-yl)-21-methyl-5,16,20,23-tetraoxo-1,2,4,4a,5,6,7,8,16,17,18,19,20,21,22,23-hexadecahydronaphtho[1,2-p][1,4]oxazino[3,4-f][1]oxa[4,7,10,14]tetraazacycloheptadecine-18-carboxamide]"
6.59,141%,"COc1cccc(OCCNC(=O)[C@@H]2CC(=O)N(C)[C@@H](CC(C)C)C(=O)N3CCOC[C@@H]3C(=O)N[C@H](Cc3ccccc3)COc3ccc4ccccc4c3C(=O)N2)c1 [Example 33, (4aR,7R,18S,22S)-7-benzyl-22-isobutyl-N-(2-(3-methoxyphenoxy)ethyl)-21-methyl-5,16,20,23-tetraoxo-1,2,4,4a,5,6,7,8,16,17,18,19,20,21,22,23-hexadecahydronaphtho[1,2-p][1,4]oxazino[3,4-f][1]oxa[4,7,10,14]tetraazacycloheptadecine-18-carboxamide]"
6.59,121%,"COc1ccc(OCCNC(=O)[C@@H]2CC(=O)N(C)[C@@H](CC(C)C)C(=O)N3CCOC[C@@H]3C(=O)N[C@H](Cc3ccccc3)COc3ccc4ccccc4c3C(=O)N2)cc1 [Example 34, (4aR,7R,18S,22S)-7-benzyl-22-isobutyl-N-(2-(4-methoxyphenoxy)ethyl)-21-methyl-5,16,20,23-tetraoxo-1,2,4,4a,5,6,7,8,16,17,18,19,20,21,22,23-hexadecahydronaphtho[1,2-p][1,4]oxazino[3,4-f][1]oxa[4,7,10,14]tetraazacycloheptadecine-18-carboxamide]"
6.58,109%,"COc1cc2c(cc1CCNC(=O)[C@@H]1CC(=O)N(C)[C@@H](CC(C)C)C(=O)N3CCOC[C@@H]3C(=O)N[C@H](Cc3ccccc3)COc3ccc4ccccc4c3C(=O)N1)OCCO2 [Example 35, (4aR,7R,18S,22S)-7-benzyl-22-isobutyl-N-(2-(7-methoxy-2,3-dihydrobenzo[b][1,4]dioxin-6-yl)ethyl)-21-methyl-5,16,20,23-tetraoxo-1,2,4,4a,5,6,7,8,16,17,18,19,20,21,22,23-hexadecahydronaphtho[1,2-p][1,4]oxazino[3,4-f][1]oxa[4,7,10,14]tetraazacycloheptadecine-18-carboxamide]"
6.51,120%,"Cc1c(CCNC(=O)[C@@H]2CC(=O)N(C)[C@@H](CC(C)C)C(=O)N3CCOC[C@@H]3C(=O)N[C@H](Cc3ccccc3)COc3ccc4ccccc4c3C(=O)N2)c(Cl)cc2c1OCCO2 [Example 36, (4aR,7R,18S,22S)-7-benzyl-N-(2-(7-chloro-5-methyl-2,3-dihydrobenzo[b][1,4]dioxin-6-yl)ethyl)-22-isobutyl-21-methyl-5,16,20,23-tetraoxo-1,2,4,4a,5,6,7,8,16,17,18,19,20,21,22,23-hexadecahydronaphtho[1,2-p][1,4]oxazino[3,4-f][1]oxa[4,7,10,14]tetraazacycloheptadecine-18-carboxamide]"
6.91,205%,"CC(C)C[C@H]1C(=O)N2CCOC[C@@H]2C(=O)N[C@H](Cc2ccccc2)COc2ccc3ccccc3c2C(=O)N[C@H](C(=O)NCCc2cc3c(cc2Cl)OCCO3)CC(=O)N1C [Example 37, (4aR,7R,18S,22S)-7-benzyl-N-(2-(7-chloro-2,3-dihydrobenzo[b][1,4]dioxin-6-yl)ethyl)-22-isobutyl-21-methyl-5,16,20,23-tetraoxo-1,2,4,4a,5,6,7,8,16,17,18,19,20,21,22,23-hexadecahydronaphtho[1,2-p][1,4]oxazino[3,4-f][1]oxa[4,7,10,14]tetraazacycloheptadecine-18-carboxamide]"
6.52,191%,"CC(C)C[C@H]1C(=O)N2CCOC[C@@H]2C(=O)N[C@H](Cc2ccccc2)COc2ccc3ccccc3c2C(=O)N[C@H](C(=O)NCCc2noc3ccccc23)CC(=O)N1C [Example 38, (4aR,7R,18S,22S)-N-(2-(benzo[d]isoxazol-3-yl)ethyl)-7-benzyl-22-isobutyl-21-methyl-5,16,20,23-tetraoxo-1,2,4,4a,5,6,7,8,16,17,18,19,20,21,22,23-hexadecahydronaphtho[1,2-p][1,4]oxazino[3,4-f][1]oxa[4,7,10,14]tetraazacycloheptadecine-18-carboxamide]"
6.05,147%,"CC(C)C[C@H]1C(=O)N2CCOC[C@@H]2C(=O)N[C@H](Cc2ccccc2)COc2ccc3ccccc3c2C(=O)N[C@H](C(=O)NCCc2ccc(C#N)cc2)CC(=O)N1C [Example 40, (4aR,7R,18S,22S)-7-benzyl-N-(4-cyanophenethyl)-22-isobutyl-21-methyl-5,16,20,23-tetraoxo-1,2,4,4a,5,6,7,8,16,17,18,19,20,21,22,23-hexadecahydronaphtho[1,2-p][1,4]oxazino[3,4-f][1]oxa[4,7,10,14]tetraazacycloheptadecine-18-carboxamide]"
6.55,215%,"CC(C)C[C@H]1C(=O)N2CCOC[C@@H]2C(=O)N[C@H](Cc2ccccc2)COc2ccc3ccccc3c2C(=O)N[C@H](C(=O)NCCc2cccc(-n3nccn3)c2)CC(=O)N1C [Example 41, (4aR,7R,18S,22S)-N-(3-(2H-1,2,3-triazol-2-yl)phenethyl)-7-benzyl-22-isobutyl-21-methyl-5,16,20,23-tetraoxo-1,2,4,4a,5,6,7,8,16,17,18,19,20,21,22,23-hexadecahydronaphtho[1,2-p][1,4]oxazino[3,4-f][1]oxa[4,7,10,14]tetraazacycloheptadecine-18-carboxamide]"
6.45,419%,"CC(C)C[C@H]1C(=O)N2CCOC[C@@H]2C(=O)N[C@H](Cc2ccccc2)COc2ccc3ccccc3c2C(=O)N[C@H](C(=O)NCCc2ccc3c(c2)OCC3)CC(=O)N1C [Example 42, (4aR,7R,18S,22S)-7-benzyl-N-(2-(2,3-dihydrobenzofuran-6-yl)ethyl)-22-isobutyl-21-methyl-5,16,20,23-tetraoxo-1,2,4,4a,5,6,7,8,16,17,18,19,20,21,22,23-hexadecahydronaphtho[1,2-p][1,4]oxazino[3,4-f][1]oxa[4,7,10,14]tetraazacycloheptadecine-18-carboxamide]"
6.06,137%,"Cc1noc(C)c1CCNC(=O)[C@@H]1CC(=O)N(C)[C@@H](CC(C)C)C(=O)N2CCOC[C@@H]2C(=O)N[C@H](Cc2ccccc2)COc2ccc3ccccc3c2C(=O)N1 [Example 43, (4aR,7R,18S,22S)-7-benzyl-N-(2-(3,5-dimethylisoxazol-4-yl)ethyl)-22-isobutyl-21-methyl-5,16,20,23-tetraoxo-1,2,4,4a,5,6,7,8,16,17,18,19,20,21,22,23-hexadecahydronaphtho[1,2-p][1,4]oxazino[3,4-f][1]oxa[4,7,10,14]tetraazacycloheptadecine-18-carboxamide]"
6.24,247%,"CCc1nc(CCNC(=O)[C@@H]2CC(=O)N(C)[C@@H](CC(C)C)C(=O)N3CCOC[C@@H]3C(=O)N[C@H](Cc3ccccc3)COc3ccc4ccccc4c3C(=O)N2)no1 [Example 44, (4aR,7R,18S,22S)-7-benzyl-N-(2-(5-ethyl-1,2,4-oxadiazol-3-yl)ethyl)-22-isobutyl-21-methyl-5,16,20,23-tetraoxo-1,2,4,4a,5,6,7,8,16,17,18,19,20,21,22,23-hexadecahydronaphtho[1,2-p][1,4]oxazino[3,4-f][1]oxa[4,7,10,14]tetraazacycloheptadecine-18-carboxamide]"

SMILES,pEC50,Emax
"CC(C)C[C@H]1C(=O)N2CCOC[C@@H]2C(=O)N[C@H](Cc2ccccc2)COc2ccc3ccccc3c2C(=O)N[C@H](C(=O)NCCc2ccc3c(c2)OCCO3)CC(=O)N1C [Example 39, (4aR,7R,18S,22S)-7-benzyl-N-(2-(2,3-dihydrobenzo[b][1,4]dioxin-6-yl)ethyl)-22-isobutyl-21-methyl-5,16,20,23-tetraoxo-1,2,4,4a,5,6,7,8,16,17,18,19,20,21,22,23-hexadecahydronaphtho[1,2-p][1,4]oxazino[3,4-f][1]oxa[4,7,10,14]tetraazacycloheptadecine-18-carboxamide]",6.38,450%
"CC(C)C[C@H]1C(=O)N2CCOC[C@@H]2C(=O)N[C@H](Cc2ccccc2)COc2ccc3ccccc3c2C(=O)N[C@H](C(=O)NCCc2noc(C3CC3)n2)CC(=O)N1C [Example 45, (4aR,7R,18S,22S)-7-benzyl-N-(2-(5-cyclopropyl-1,2,4-oxadiazol-3-yl)ethyl)-22-isobutyl-21-methyl-5,16,20,23-tetraoxo-1,2,4,4a,5,6,7,8,16,17,18,19,20,21,22,23-hexadecahydronaphtho[1,2-p][1,4]oxazino[3,4-f][1]oxa[4,7,10,14]tetraazacycloheptadecine-18-carboxamide]",6.17,324%

# — patent US20240208992A1, “MACROCYCLES AS CFTR MODULATORS” (Idorsia Pharmaceuticals Ltd, priority 2021, published 2024)
